From patent US9034381B2, “Process to control particle size” (Alphapharm Pty Ltd, priority 2005, dated 2015)
Where “and” joins values, the source holds several entries; their conditions need not be identical. Equal entries are not always repeated.

Assay: Particle size measurement of milled material (Malvern Mastersizer S laser diffraction)
Assay type: physicochemical
[1] = Example 1 (comparative), feedstock, individual samples
[2] = Example 1 (comparative), feedstock
[3] = Example 1 (comparative), micronised in a single process, composite
[4] = Example 1 (comparative), micronised in a single process, individual samples
[5] = Example 2 (comparative), feedstock, individual samples
[6] = Example 2 (comparative), feedstock
[7] = Example 2 (comparative), micronised in a single process, composite
[8] = Example 2 (comparative), micronised in a single process, individual samples
[9] = Example 3 (comparative), feedstock
[10] = Example 3 (comparative), micronised in a single process, composite
[11] = Example 3 (comparative), micronised in a single process, individual samples
[12] = Example 4, micronised first pass
[13] = Example 4, micronised second pass

Question: What does the source list for `NC(=O)N1c2ccccc2CC(=O)c2ccccc21` [Oxcarbazepine]?
Answer: D[v, 0.5] [1]: 47.04 μm and 47.77 μm; D[v, 0.9] [1]: 98.61 μm and 101.96 μm; D[v, 0.5] mean [2]: 47.41 μm; D[v, 0.9] mean [2]: 100.29 μm; D[v, 0.5] composite (average) [3]: 15.27 μm; D[v, 0.9] composite (average) [3]: 53.30 μm; D[v, 0.5] [4]: 15.02 μm and 15.18 μm and 15.16 μm and 25.41 μm and 10.36 μm; D[v, 0.9] [4]: 52.08 μm and 51.71 μm and 51.94 μm and 67.97 μm and 44.13 μm; D[v, 0.5] [5]: 47.04 μm and 47.77 μm; D[v, 0.9] [5]: 98.61 μm and 101.96 μm; D[v, 0.5] mean [6]: 47.41 μm; D[v, 0.9] mean [6]: 100.29 μm; D[v, 0.5] composite (average) [7]: 5.95 μm; D[v, 0.9] composite (average) [7]: 30.47 μm; D[v, 0.5] [8]: 3.84 μm and 6.09 μm and 2.15 μm and 4.91 μm; D[v, 0.9] [8]: 19.56 μm and 31.90 μm and 11.56 μm and 27.25 μm; D[v, 0.5] [9]: 73.33 μm; D[v, 0.9] [9]: 323.50 μm; D[v, 0.5] composite [10]: 13.79 μm; D[v, 0.9] composite (average) [10]: 33.14 μm; D[v, 0.5] [11]: 7.50 μm and 19.51 μm and 15.09 μm and 15.64 μm; D[v, 0.9] [11]: 16.47 μm and 44.34 μm and 34.47 μm and 35.78 μm; D[v, 0.5] mean (Example 4, initial feedstock): 65.06 μm; D[v, 0.9] mean (Example 4, initial feedstock): 177.81 μm; D[v, 0.5] mean [12]: 33.89 μm; D[v, 0.9] mean [12]: 78.22 μm; D[v, 0.5] mean [13]: 16.30 μm; D[v, 0.9] mean [13]: 37.22 μm
